Where a chain is given by its changes, count along the chain named. Like-named read-outs stand apart in the source and are kept apart here. Marks after values point to notes of the source that are not given here.
Columns and labels:
MAS [1] = biological target: T1, MAS (Homo sapiens, UniProt P04201); test: HTRF IP1 assay, induced myc-tagged WT MAS HEK293 stable cell line; type: cell-based
T1 construct: expressed in transfected cells
T1 sequence (P04201 1-325): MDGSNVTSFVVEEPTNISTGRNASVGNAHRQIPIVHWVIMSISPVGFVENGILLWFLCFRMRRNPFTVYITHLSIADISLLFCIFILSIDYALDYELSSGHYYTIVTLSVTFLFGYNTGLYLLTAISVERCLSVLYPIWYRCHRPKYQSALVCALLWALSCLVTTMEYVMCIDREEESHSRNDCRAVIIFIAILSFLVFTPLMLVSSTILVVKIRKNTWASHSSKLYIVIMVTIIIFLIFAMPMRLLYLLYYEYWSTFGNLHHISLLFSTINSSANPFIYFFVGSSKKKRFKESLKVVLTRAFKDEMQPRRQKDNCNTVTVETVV
Experimental: IP1 levels in the cells were measured using the IP-One Tb kit (Cisbio US, Bedford, MA). For the assay, cells were seeded onto a 384-well low volume white cell culture plate at a density of 25,000 cells/well in 20 µl of induction or complete medium. In the IP1 assays the cell density of 25,000 cells/well was consistently maintained to minimize variability between independent experiments. The cells were maintained in a cell culture incubator for 26–28 h. The cells were then serum starved for 2 h by replacing the medium with 7 µl of serum free DMEM/F-12. During this step, 7 µl of serum free DMEM/F-12 was also added to the wells to which IP1 standards would be subsequently added. […] The cells were then placed in the cell culture incubator for 4 h. Later, 3 µl each of d2-labeled IP1 and anti-IP1 cryptate Tb conjugated antibody diluted in lysis buffer was added sequentially to all the wells and the plate was incubated overnight in the dark at room temperature. Time-resolved ratiometric fluorescence emission measurements at 665 nm and 620 nm were taken after excitation at 343 nm on FlexStation 3 instrument.
For the IP1 assay, a standard curve was generated using the 4-Parameter logistic equation fit of the HTRF readings of IP1 standards using the SoftMax Pro software. The IP1 concentrations in the experiments were extrapolated based on the standard curve parameters. […] For all the assays, the EC50 and IC50 values were estimated by fitting the data to a three parameter dose response using GraphPad Prism software (GraphPad, La Jolla, CA).

MAS [2] = biological target: T1, MAS; set-up: method as in ref [9] (a number printed in a supplementary file, which may have a reference list of its own: not looked up in the article's list); settings: ref [9], read-out: EC50 (cAMP assay); cited from earlier work
MAS [3] = biological target: T1, MAS; test: SRF-RE luciferase reporter assay (Gα12-dependent), induced WT MAS stable cell line; type: cell-based; settings: induced cells
Experimental: The luciferase assay was performed using pGL4 luciferase reporter vectors and Dual-Glo Luciferase Assay System (Promega, Madison, WI). For this assay, the inducible MAS stable cells were initially plated in a 10 cm plate and left overnight in a cell culture incubator. The following day the cells were transfected with 5 µg of pGL4.34 plasmid containing serum response factor response element (SRF-RE)-firefly luciferase reporter gene and 1 µg of pGL4.73 plasmid containing renilla luciferase (as a transfection efficiency control). […] After 8 h of transfection and induction, the cells were seeded onto a 96-well clear bottom black cell culture plate (pre-coated with poly-L-lysine) at a density of 125,000 cells/well in 100 µl of minimal medium (with reduced serum of 0.5%). The plate was maintained in a cell culture incubator for 18–20 h. At this point 50 µl of media in the cells was replaced with 50 µl of serum free media containing ligands at 2x the desired concentration and incubated for an additional 6 h. Finally, the luciferase activity in the cells was measured according the protocol provided by the manufacturer. The luminescence measurements (RLU) in the cells were obtained on FlexStation 3 instrument.
For re-stimulation assays, the data is expressed as the percentage of maximum agonist stimulation to allow for ready comparison between individual experiments. […] In the luciferase assay, the luminescence measurements (RLU) are presented as a ratio of firefly to renilla luciferase activity. For all the assays, the EC50 and IC50 values were estimated by fitting the data to a three parameter dose response using GraphPad Prism software (GraphPad, La Jolla, CA).

MAS F112A mutant = biological target: T2, MAS F112A mutant (Homo sapiens, UniProt P04201, F112A); test: IP1 assay, F112A MAS mutant stable cell line; type: cell-based
T2 construct: expressed in transfected cells
T2 sequence (P04201 1-325 F112A): T1 sequence (P04201 1-325) with F112A
Source text: The WT MAS expression construct was synthesized with an N-terminal myc-tag (Figure 1) by GenScript (Piscataway, NJ). The myc-tagged WT MAS from this vector was initially sub-cloned into pcDNA3.1 and later sub-cloned into tetracycline/doxycycline inducible vector pcDNA 5/TO (Life Technologies, Grand Island, NY). Four different ligand binding MAS mutants (F112A, I191A, M244A and T270A) were created using site-directed mutagenesis of WT myc-tagged MAS in pcDNA3.1 or pcDNA 5/TO vector background (Agilent Technologies, Santa Clara, CA). WT MAS receptor without an epitope tag was constructed by replacing the 5′ portion of the myc-tagged WT MAS in pcDNA 5/TO by untagged MAS sequence from a plasmid construct provided as a gift from Arena Pharmaceuticals, Inc. (San Diego, CA). The sequences of all WT and mutant MAS genes in plasmid constructs were verified by capillary DNA sequencing at the Genomics Core at Lerner Research Institute (Cleveland, OH).
IP1 levels in the cells were measured using the IP-One Tb kit (Cisbio US, Bedford, MA). For the assay, cells were seeded onto a 384-well low volume white cell culture plate at a density of 25,000 cells/well in 20 µl of induction or complete medium. In the IP1 assays the cell density of 25,000 cells/well was consistently maintained to minimize variability between independent experiments. The cells were maintained in a cell culture incubator for 26–28 h. […] Time-resolved ratiometric fluorescence emission measurements at 665 nm and 620 nm were taken after excitation at 343 nm on FlexStation 3 instrument. […]
For re-stimulation assays, the data is expressed as the percentage of maximum agonist stimulation to allow for ready comparison between individual experiments. For the IP1 assay, a standard curve was generated using the 4-Parameter logistic equation fit of the HTRF readings of IP1 standards using the SoftMax Pro software. […] In the luciferase assay, the luminescence measurements (RLU) are presented as a ratio of firefly to renilla luciferase activity. […]

untagged WT MAS = biological target: T3, untagged WT MAS (Homo sapiens, UniProt P04201); test: Calcium assay, untagged WT MAS inducible HEK293 stable cell line; type: cell-based
T3 construct: expressed in transfected cells
T3 sequence (P04201 1-325): T1 sequence (P04201 1-325)
Experimental: The assay was performed using FLIPR Calcium 5 assay kit (Molecular Devices, Sunnyvale, CA). For calcium measurements, cells at a density of 125,000 cells/well in 100 µl medium were seeded onto a 96-well clear bottom black cell culture plate that was pre-coated with poly-L-lysine. In the calcium assays the cell density of 125,000 cells/well was consistently maintained to minimize variability between independent experiments. The cells were seeded in induction media to induce MAS expression or in complete media for negative controls. The plate was maintained in a cell culture incubator for 26–28 h. The cells were then serum starved for 2 h by replacing the medium with 100 µl of serum free DMEM. In the case of pre-treatment with pan-inhibitor of G protein signaling, BIM-46187, the cells were initially serum starved for 1 h by replacing the medium with 50 µl of serum free DMEM. After 1 h, 50 µl of BIM-46187 was added to the cells to a final concentration of 25 µM and treated for another 1 h. Following serum starvation, 100 µl of calcium sensitive dye along with 2x (2.5 mM final concentration) probenecid (Life Technologies, Grand Island, NY) was added to the cells. During this step, AR-inverse agonist or BIM-46187 was also added at desired concentrations to the calcium dye preparation in case of experiments where cells were pre-treated with these inhibitors. The cells were maintained for one hour in the cell culture incubator. Following this, the 96-well plate containing cells loaded with calcium dye and a U-bottom 96-well plate containing ligands at 5x the desired final concentration in D-PBS (1.47 mM KH2PO4, 138 mM NaCl, 2.67 mM KCl, 8.1 mM Na2HPO4, pH 7.3) were allowed to equilibrate for 15 min on a FlexStation 3 instrument (Molecular Devices, Sunnyvale, CA) at 37°C. The plates were further equilibrated on the instrument for 5 min with the lids removed from the plates. The instrument was programmed in FLEX mode to add ligands (50 µl at 5x concentration) to the cells and to monitor the fluorescence before and after adding the ligands. […]

[4] = Solubility of ligand stock in assay buffer; type: physicochemical; settings: 5x ligand stock in D-PBS, at greater than 50 µM
MAS [5] = biological target: T1, MAS; test: Intracellular cAMP assay, induced MAS cells; type: cell-based; settings: data not shown
Experimental: Measurement of intracellular cAMP. The intracellular cAMP levels were measured using CatchPoint™ cAMP Fluorescent assay kit from Molecular devices (Molecular Devices, Sunnyvale, CA). For the cAMP assay, the cells were plated at a density of 1.25 million cells/well in a six-well plate. The cells were maintained in a cell culture incubator and induced the following day with doxycycline. The cells were serum starved for 2h following the induction for 26-28h. At this point the serum free media was replaced with 1ml of 3-Isobutyl-1-methylxanthine (Sigma-Aldrich, St. Louis, MO) at 1mM concentration for 15min at 37°C. Following this, 250µl of ligands were added at 5x concentration to the wells and incubated for another 15min at 37°C. The plates were then immediately transferred to ice and the cells were lysed with 150µl of lysis buffer provided with kit. The cAMP levels in the lysed samples were measured according to the protocol provided by the supplier.

| SMILES | EC50 (MAS [1]; WT MAS, induced cells) [nM] | Fold over WT, EC50 IP1 assay (MAS [1]; WT construct) | EC50 (MAS [2]) [nM] | EC50 (MAS [3]) [nM] | EC50, IP1 assay (MAS F112A mutant) | EC50 (untagged WT MAS; read-out: EC50, calcium flux) [nM] | Solubility [4] | Effect on cAMP levels (MAS [5]) | IC50 (MAS [1]; WT MAS, induced cells, inhibition of constitutive activity) [nM] | Fold over WT, IC50 IP1 assay (MAS [1]; WT construct) | IC50 (MAS [3]) [nM] | Fold over WT, IC50 IP1 assay (MAS F112A mutant) | IC50 (MAS F112A mutant) [nM] | IC50 (untagged WT MAS; read-out: IC50, calcium flux) [nM] |
| --- | --- | --- | --- | --- | --- | --- | --- | --- | --- | --- | --- | --- | --- | --- |
| COc1cc([N+](=O)[O-])ccc1S(=O)(=O)N1CC(CN2CCN(c3ccccn3)CC2)C(c2cccc(F)c2)C1 (centres unmarked) [AR-agonist] | 1300 ± 300 | 1 | 720 | 500 ± 100 | cbd | 1200 ± 100 | solubility issues | decreased cAMP levels | – | – | – | – | – | – |
| C=CCCN1CCC2(CC1)CN(C(=O)c1c(F)cccc1F)c1ccc(Cl)cc12 [AR-inverse] | – | – | – | – | – | – | – | – | 700 ± 100 | 1 | 400 ± 100 | 3** | 2100 ± 400 | 500 ± 400 |

— publication PMC4113456, “Atypical Signaling and Functional Desensitization Response of MAS Receptor to Peptide Ligands” (PLoS ONE, 2014)
